From PubChem BioAssay (NCI)
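Cultured in 96-well plates, cells were exposed to test compound for 48 hours across five concentrations. TGI: total growth inhibition.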

Assays:
Test in all cases: inhibition of tumour cell growth, NCI panel, 48 h
A549 NSCLC = test system: A549 NSCLC
CAKI-1 renal = test system: CAKI-1 renal
COLO 205 colon = test system: COLO 205 colon
HCC-2998 colon = test system: HCC-2998 colon
K-562 leukemia = test system: K-562 leukemia
M14 melanoma = test system: M14 melanoma
MALME-3M melanoma = test system: MALME-3M melanoma
MOLT-4 leukemia = test system: MOLT-4 leukemia
OVCAR-8 ovarian = test system: OVCAR-8 ovarian
SK-MEL-5 melanoma = test system: SK-MEL-5 melanoma
SR leukemia = test system: SR leukemia
TK-10 renal = test system: TK-10 renal
UACC-62 melanoma = test system: UACC-62 melanoma

SMILES	TGI (A549 NSCLC)	TGI (CAKI-1 renal)	TGI (COLO 205 colon)	TGI (HCC-2998 colon)	TGI (K-562 leukemia)	TGI (M14 melanoma)	TGI (MALME-3M melanoma)	TGI (MOLT-4 leukemia)	TGI (OVCAR-8 ovarian)	TGI (SK-MEL-5 melanoma)	TGI (SR leukemia)	TGI (TK-10 renal)	TGI (UACC-62 melanoma)
COc1cc2c(cc1OC)C(=O)N(c1ccc(O)cc1)C2=O	> 100 µM	> 100 µM	> 100 µM	> 100 µM	> 100 µM	> 100 µM	> 100 µM	> 100 µM	> 100 µM	> 100 µM	> 100 µM	> 100 µM	> 100 µM
C=C1C(=O)O[C@H]2C[C@@]3(COC(C)=O)C=COC=C(COC(=O)C(C)C)C3CC12 (stereo partly specified)	> 100 µM	> 100 µM	> 100 µM	> 100 µM	> 100 µM	–	> 100 µM	> 100 µM	> 100 µM	> 100 µM	91.8 µM	> 100 µM	41.2 µM
Cc1ccc(NC=O)c(-c2c(N)[nH]c(=S)[nH]c2=O)c1	> 100 µM	> 100 µM	> 100 µM	–	> 100 µM	> 100 µM	> 100 µM	> 100 µM	> 100 µM	> 100 µM	> 100 µM	> 100 µM	> 100 µM
NC(N)=NC(N)=Nc1ccc(S(=O)(=O)O)cc1	> 100 µM	> 100 µM	> 100 µM	> 100 µM	> 100 µM	> 100 µM	> 100 µM	–	> 100 µM	> 100 µM	> 100 µM	> 100 µM	> 100 µM
O=S(=O)(Nc1nc2ccccc2nc1Nc1ccc2ccccc2c1)c1ccccc1	> 100 µM	99 µM	26.3 µM	29 µM	> 100 µM	> 57.2 µM	> 100 µM	65.1 µM	> 100 µM	42.6 µM	> 87.4 µM	> 82.7 µM	43.8 µM
CC[C@@]1(O)C(=O)OCc2c1cc1n(c2=O)Cc2c-1nc1ccccc1c2/C=N\NC(=O)C1CCCN1 (stereo partly specified)	> 100 µM	> 23.5 µM	> 100 µM	> 53.7 µM	> 100 µM	5.81 µM	> 89.4 µM	–	10.9 µM	2.25 µM	1.73 µM	> 100 µM	0.653 µM
CCN1CCC(O)(c2ccc(Oc3ccc(F)cc3)cc2)C(C(=O)c2ccc(Oc3ccc(F)cc3)cc2)C1 (stereo unspecified)	29.5 µM	25.7 µM	33.5 µM	23.6 µM	> 100 µM	30.9 µM	31 µM	41.3 µM	30.7 µM	–	6.5 µM	23.5 µM	28 µM
